Laboratory results reported in patent publication US8268823B2, “Medical use of triazine derivatives” (University of Greenwich, priority 2006, dated 2012).
Where a name gives a salt, the structure may show the parent alone. Read-outs that look alike come from different tables or passages of the source.

Experiments:
[1] = system: sodium channel; assay: veratrine-evoked uptake of [14C]guanidine into rat forebrain synaptosomes ([14C]guanidine flux); type: biochemical; details: for Hill (uptake of [14C]guanidine): slope
[2] = system: sodium channel; type: binding, rat
[3] = biological target: T1, hERG potassium channel (Homo sapiens, UniProt Q12809); assay: in vitro
T1 sequence (Q12809 whole entry): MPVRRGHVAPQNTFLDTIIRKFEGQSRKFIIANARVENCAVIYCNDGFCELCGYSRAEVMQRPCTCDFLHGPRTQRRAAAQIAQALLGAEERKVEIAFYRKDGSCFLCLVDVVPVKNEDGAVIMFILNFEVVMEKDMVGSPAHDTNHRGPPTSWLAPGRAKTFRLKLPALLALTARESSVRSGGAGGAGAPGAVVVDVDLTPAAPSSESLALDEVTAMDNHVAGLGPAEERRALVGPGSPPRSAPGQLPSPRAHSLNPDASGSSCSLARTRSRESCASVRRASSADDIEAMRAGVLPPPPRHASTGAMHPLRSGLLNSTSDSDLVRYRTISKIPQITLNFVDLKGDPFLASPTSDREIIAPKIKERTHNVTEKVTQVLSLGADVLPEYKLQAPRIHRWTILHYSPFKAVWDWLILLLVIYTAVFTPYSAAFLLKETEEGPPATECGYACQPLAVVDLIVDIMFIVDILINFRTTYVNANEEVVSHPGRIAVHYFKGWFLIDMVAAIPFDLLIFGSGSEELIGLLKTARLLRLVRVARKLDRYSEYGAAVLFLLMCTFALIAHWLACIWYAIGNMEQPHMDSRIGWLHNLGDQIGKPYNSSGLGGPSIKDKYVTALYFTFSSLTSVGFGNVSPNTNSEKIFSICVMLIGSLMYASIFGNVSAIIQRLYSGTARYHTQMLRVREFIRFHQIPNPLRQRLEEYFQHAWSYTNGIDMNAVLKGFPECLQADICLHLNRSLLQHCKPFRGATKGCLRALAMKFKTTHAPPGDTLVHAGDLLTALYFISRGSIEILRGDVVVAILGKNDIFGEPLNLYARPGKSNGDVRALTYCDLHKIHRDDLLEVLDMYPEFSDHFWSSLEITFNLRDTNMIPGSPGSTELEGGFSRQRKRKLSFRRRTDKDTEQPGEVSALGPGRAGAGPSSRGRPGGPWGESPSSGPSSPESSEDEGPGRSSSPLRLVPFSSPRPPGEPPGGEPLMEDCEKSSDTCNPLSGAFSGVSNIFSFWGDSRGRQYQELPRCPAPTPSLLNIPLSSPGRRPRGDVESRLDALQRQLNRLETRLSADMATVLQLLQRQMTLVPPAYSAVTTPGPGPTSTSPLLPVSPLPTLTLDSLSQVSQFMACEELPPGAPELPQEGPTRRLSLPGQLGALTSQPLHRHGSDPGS

[4] = biological target: T2, DiHydroFolate Reductase (DHFR) (Rattus norvegicus, UniProt Q920D2); assay: inhibition of binding of [3H]methotrexate to rat liver homogenate supernatant
T2 construct: from tissue; host or cells: rat liver homogenate supernatant (47,500 x g)
T2 sequence (Q920D2 1-187): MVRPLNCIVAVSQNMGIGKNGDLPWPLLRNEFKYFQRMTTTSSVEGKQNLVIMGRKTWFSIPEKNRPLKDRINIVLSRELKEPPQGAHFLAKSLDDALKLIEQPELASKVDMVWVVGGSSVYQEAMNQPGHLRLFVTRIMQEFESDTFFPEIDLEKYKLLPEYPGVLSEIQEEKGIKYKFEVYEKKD

[5] = system: 0.4 mm slices of rat hippocampus; assay: hippocampal slice assay: ATP after iodoacetate metabolic insult; details: Rattus norvegicus; for Emax: read-out: Max Protection (% v TTX)
[6] = biological target: T1, hERG potassium channel; assay: inhibition of binding of [3H]astemizole to cell membranes expressing hERG
[7] = Table 8, read-out: IC50 (μM) (uptake of [14C]guanidine)
[8] = Table 4, tissue prep'n Synaptosomes, read-out: [3H]BTX-B binding Mean (IC50: μM)
[9] = Table 5, Synaptosome data, read-out: [3H]BTX-B IC50
[10] = hERG / [3H]BTX-B selectivity, ratio of extrapolated hERG IC50 to [3H]BTX-B IC50 (synaptosomes)
[11] = hERG / [14C]guanidine flux selectivity, ratio of extrapolated hERG IC50 to [14C]guanidine flux IC50
[12] = Table 3, rat forebrain synaptosomes, read-out: [14C]guanidine flux Mean (IC50: μM)
[13] = Table 5, read-out: [14C]guanidine flux IC50
[14] = read-out: hippocampal slice EC50 (μM)

SMILES: CCn1nc(-c2cc(Cl)cc(Cl)c2Cl)c(N)nc1=N [Example 50]
- pIC50 (uptake of [14C]guanidine) ([1]; Table 8): 5.52 ± 0.03
- IC50 [1, 7]: 3 µM
- Hill (uptake of [14C]guanidine) ([1]; Table 8): 0.93
- melting point: 269 to 271 °C

SMILES: N=c1nc(N)c(-c2cc(Cl)cc(Cl)c2Cl)nn1CCF (as salt: methanesulfonate) [Example 55, 5(3)-Amino-6-(2,3,5-trichlorophenyl)-2,3(2,5)-dihydro-3(5)-imino-2-(2-fluoroethyl)-1,2,4-triazine methanesulfonate]
- melting point: 212 to 214 °C

SMILES: Cn1nc(-c2cc(Cl)cc(Cl)c2)c(N)nc1=N (as salt: methanesulfonate) [Example 53, 5(3)-Amino-6-(3,5-dichlorophenyl)-2,3(2,5)-dihydro-3(5)-imino-2-methyl-1,2,4-triazine methanesulfonate]
- melting point: 234 to 236 °C

SMILES: CCn1nc(-c2ccccc2)c(N)nc1=N (as salt: methanesulfonate) [Example 47, 5(3)-Amino-6-phenyl-2,3(2,5)-dihydro-3(5)-imino-2-ethyl-1,2,4-triazine methanesulfonate]
- melting point: 230 to 232 °C

SMILES: CCn1nc(-c2cc(Cl)cc(Cl)c2)c(N)nc1=N (as salt: methanesulfonate) [Example 54, 5(3)-Amino-6-(3,5-dichlorophenyl)-2,3(2,5)-dihydro-3(5)-imino-2-ethyl-1,2,4-triazine methanesulfonate]
- melting point: 217 to 219 °C

SMILES: Cn1nc(-c2ccc(Cl)cc2Cl)c(N)nc1=N (as salt: methanesulfonate) [Example 45, 5(3)-Amino-6-(2,4-dichlorophenyl)-2,3(2,5)-dihydro-3(5)-imino-2-methyl-1,2,4-triazine methanesulfonate]
- melting point: 283 to 285 °C

SMILES: Cn1nc(-c2ccccc2)c(N)nc1=N (as salt: methanesulfonate) [Example 46, 5(3)-Amino-6-phenyl-2,3(2,5)-dihydro-3(5)-imino-2-methyl-1,2,4-triazine methanesulfonate]
- melting point: 230 to 232 °C

SMILES: Nc1nnc(-c2ccccc2OC(F)(F)F)c(N)n1 [Example 51, 3,5-Diamino-6-(2-trifluoromethoxyphenyl)-1,2,4-triazine]
- pIC50 (uptake of [14C]guanidine) ([1]; Table 8): 2.76 ± 0.11
- IC50 [1, 7]: 1740 µM
- Hill (uptake of [14C]guanidine) ([1]; Table 8): 1.22
- melting point: 148 to 150 °C

SMILES: CCCn1nc(-c2cccc(Cl)c2Cl)c(N)nc1=N [Example 6, 5(3)-Amino-6-(2,3-dichlorophenyl)-2,3(2,5)-dihydro-3(5)-imino-2-propyl-1,2,4-triazine]
- IC50 ([2]; Table 4, tissue prep'n Homogenate, read-out: [3H]BTX-B binding Mean (IC50: μM)): 0.5 µM
- IC50 [2, 8]: 3.6 µM
- IC50 [2, 9]: 2.2 µM
- inhibition at 10 µM [3]: 78%
- selectivity ratio [3, 10]: 1.3
- selectivity ratio [3, 11]: 0.6
- inhibition at 10 µM ([4]; read-out: [3H]methotrexate binding Inhibition (% @ assay conc'n), assay concentration 10 μM): 0%
- inhibition at 99 µM ([4]; read-out: [3H]methotrexate binding Inhibition (% @ assay conc'n), assay concentration 99 μM): 2%
- IC50 [1, 12]: 2.8 µM
- IC50 [1, 13]: 4.8 µM
- EC50 ([5]; read-out: EC50 (max set @ 100)): 14.5 µM
- Emax [5]: 81 ± 27%
- EC50 [5, 14]: 10.4 µM
- IC50 [6]: 2.8 µM

SMILES: Nc1nnc(-c2cc(Cl)cc(Cl)c2Cl)c(N)n1 [Example 31, 6-(2,3,5-trichlorophenyl)-1,2,4-triazine-3,5-diamine]
- IC50 [2, 8]: 21.9 µM
- IC50 [2, 9]: 21.9 µM
- inhibition at 10 µM [3]: 13%
- selectivity ratio [3, 10]: 3.1
- selectivity ratio [3, 11]: 4.1
- IC50 ([4]; rat liver supernatant): 41 ± 4.7 µM
- IC50 [1, 12]: 16.2 µM
- IC50 [1, 13]: 16.2 µM
- EC50 ([5]; read-out: EC50 (max set @ 100)): 2.2 µM
- Emax [5]: 91 ± 4%
- EC50 [5, 14]: 1.8 µM
- IC50 [6]: 66.9 µM

SMILES: CCn1nc(-c2cc(Cl)ccc2Cl)c(N)nc1=N (as salt: methanesulfonate) [Example 49, 5(3)-Amino-6-(2,5-dichlorophenyl)-2,3(2,5)-dihydro-3(5)-imino-2-ethyl-1,2,4-triazine methanesulfonate]
- melting point: 264 to 265 °C

SMILES: Cn1nc(-c2cc(Cl)ccc2Cl)c(N)nc1=N (as salt: methanesulfonate) [Example 48, 5(3)-Amino-6-(2,5-dichlorophenyl)-2,3(2,5)-dihydro-3(5)-imino-2-methyl-1,2,4-triazine methanesulfonate]
- melting point: 297 to 298 °C
